pIC50: −log10 of the molar value. “Also recorded” adds a separate entry of the source.
What was measured:
basal organoids = assay: Growth factor evaluation for basal organoids after sedimentation and clonogenic culture; type: cell-based, human; parameters: basal organoid growth: dose or concentration left out as unconfirmed
Description: (§1) Screening exogenous growth factors in organoid culture.
Density sedimentation of basal cells. Organoid cultures within 2-3 weeks of primary plating were dissociated with 1 U/ml neutral protease (Worthington, Cat LS02100) and 100 KU of DNase I in organoid media. Basal organoids were then collected by gravity sedimentation and the supernatant was either aspirated or collected for downstream use. Basal organoids were then further fractionated on a custom Ficoll-Paque gradient (4 vol Ficoll-Paque to 1 vol PBS) and centrifuged at 300×g for 10 minutes at room temperature. The supernatant was aspirated and the organoid pellet was resuspended in 10 ml PBS in a 15 ml conical tube, collected by gravity sedimentation, and plated into ECM as described above.

AT2 organoids = assay: AT2 organoid proliferation with niche factors and PORCUPINE inhibitor
Description: Screening exogenous growth factors in organoid culture. Distal airway cells were isolated and plated as above with the following exceptions: ADMEM/F12 was used instead of organoid medium during elastase digestion of lung tissue, cells were serially diluted and filtered through a 40 micron cell strainer and counted with a hemocytometer. 1000 viable epithelial cells (by Trypan blue exclusion, size, and morphology) per μL ECM were plated per 5 μL Matrigel droplet per well. Base media consisted of organoid media lacking A83-01, EGF, NOGGIN, WNT3A or RSPO1. EGF (final 50 ng/ml, R&D), NOGGIN (final 100 ng/ml, R&D), WNT3A (final 100 ng/ml, R&D), RSPO1 (final 500 ng/ml, Peprotech) or the PORCUPINE inhibitor C59 (final 1μM, Biogems) were added singly or in combination to base media. Images were obtained ten days after primary plating with an inverted light microscope at 5X magnification. Each condition was plated in quadruplicate and organoid formation was quantified using the analyze particle (threshold=4902 pixels) plugin in ImageJ as previously described.

TNFRSF12A^hi basal cells [1] = details: basal organoids from FACS-purified TNFRSF12A^hi EPCAM+ITGA6+ITGB4+ cells, 14 days culture
Description: NOTCH manipulation in TNFRSF12A^hi basal cells. TNFRSF12A^hi basal cells were isolated and cultured as above. 24 hours after plating, media was changed to lung organoid media with either vehicle (0.1% DMSO), 1 μg/ml JAG1 peptide (Anaspec), 500 nM soluble recombinant NOTCH receptor inhibitor Delta Like Ligand 4 mutant (DLL4E12), or 1 μM gamma secretase inhibitor DBZ (Tocris). After 14 days of culture, biochemical estimation of proliferation was carried out by resazurin reduction assay (Alamar Blue, Thermo Fisher) for 16 hours according to manufacturer's protocol and resazurin reduction was measured via fluorescence readout on a Biotek Synergy H1 plate reader according to the manufacturer's protocol. Reference blank consisted of Alamar Blue reagent incubated in parallel media without cells.

TNFRSF12A^hi basal cells [2] = details: NOTCH inhibition
Description: Quantitation of SCGB1A1 and SFTPC mRNA expression in TNFRSF12A^hi basal cells. FACS-isolated basal cells cultured in the above conditions were fixed in 2% paraformaldehyde in PBS for one hour at room temperature, embedded in HistoGel (Thermo Fisher HG-4000-012), dehydrated and paraffin embedded en bloc. One hundred serial sections were obtained at 10 micron thickness, and immunocytochemistry and in situ hybridization were performed at each 100 micron level. Confocal images were acquired in a blinded manner and organoids were defined as a cluster of 3 or greater DAPI nuclei. Channels were acquired using identical parameters for DAPI, Alexa 488 (SFTPC RNA in situ hybridization), Texas Red (SCGB1A1 RNA in situ hybridization), and Alexa 647 (KRTS immunostaining). Z-stacks were collected and images were processed in ImageJ and maximum intensity Z projections were used to quantitate SCGB1A1 and SFTPC RNA in situ in Cell Profiler using the RNA Proximity Ligase Assay counting pipeline.

[3] = test system: PR8 strain of H1N1 modified to express GFP; assay: microbe, parasite or virus in culture; type: cell-based, influenza H1N1 (in human distal lung organoids)
[4] = test system: human distal lung organoids; assay: Screening exogenous growth factors in distal lung organoid culture; type: cell-based; details: single cell suspensions of distal lung, feeder-free; EGF and NOGGIN in combination
Description: as §1

## Cc1cc(-c2ccc(CC(=O)Nc3ccc(-c4cccnc4)cc3)cc2)ccn1 [C59, reference compound]
Basal organoids; after d14 sedimentation, clonogenic culture, C59
  basal organoid growth: growth was not significantly inhibited; also recorded: Growth was not affected
AT2 organoids; PORCUPINE inhibitor C59 (1 μM)
  AT2 organoid growth: attenuated AT2 organoid growth

## C[C@H](NC(=O)Cc1cc(F)cc(F)c1)C(=O)N[C@@H]1C(=O)N(C)c2ccccc2-c2ccccc21 [DBZ]
TNFRSF12A^hi basal cells [1]
  proliferation (resazurin dye reduction): significantly increased proliferation
TNFRSF12A^hi basal cells [2]
  SFTPC mRNA expression: upregulating SFTPC mRNA

## Nc1ccn([C@@H]2O[C@H](CO)[C@@H](O)[C@H]2F)c(=O)n1 [FdC, 2′-deoxy-2′-fluorocytidine]
[3]
  inhibition of H1N1 viral infection or replication (GFP attenuation): efficacious with EC50 consistent with previous reports
[3]; Influenza A virus, read-out: IC50 on influenza infectivity and replication (dose response curve)
  pIC50: 6.47

## CC(=O)N[C@H]1[C@H]([C@H](O)[C@H](O)CO)OC(C(=O)O)=C[C@@H]1N=C(N)N [zanamivir]
[3]
  IC50 on influenza infectivity and replication (dose response curve): did not exhibit a dose response curve
  inhibition of H1N1 viral infection or replication (GFP attenuation): did not inhibit H1N1 viral infection or replication

## EGF: recombinant human EGF (R&D Systems)
Basal organoids; pure basal cell cultures, EGF and Noggin together
  basal organoid growth with exogenous growth factors: sufficient for maximal growth
AT2 organoids; EGF and NOGGIN together, WNT-3A and RSPONDIN-1 added exogenously
  clonal AT2 organoid proliferation with exogenous growth factors: sufficient for clonal AT2 organoid proliferation
[4]
  distal lung organoid growth with exogenous growth factors: optimal
